Experimental findings from ChEMBL document CHEMBL2321818, “Embellicines A and B: absolute configuration and NF-κB transcriptional inhibitory activity” (J Med Chem, 2013) are described below.

A value given as a limit tells only on which side of the number the result lay.

The nature of data set [1]: (§1) Inhibition of TNFalpha-induced NFkappaB activation in human K562 cells incubated for 2 hrs prior to TNFalpha induction measured after 6 hrs by luciferase reporter gene assay. It counts as cell-based. Background: Reporter assays use an easily measured gene product as a stand-in for the process of interest.
In data set [2] the test system is K562. The description is as §1. It counts as cell-based.
In data set [3] the test system is K562. Put plainly: Cytotoxicity against human K562 cells assessed as cell viability by trypan blue exclusion assay. Format: functional, cell-based. To be noted: TDE = time-dependent effect.
In data set [4] the test system is K562. As to the kind of experiment: Cytotoxicity against human K562 cells assessed as cell viability after 8 to 72 hrs by trypan blue exclusion assay. It counts as functional, cell-based.
Data set [5] concerns K562. As to the kind of experiment: Cytotoxicity against human K562 cells assessed as cell viability after 72 hrs by trypan blue exclusion assay. Format: functional, cell-based. To be noted: K562, 72 h.
Data set [6] deals with K562. As to the kind of experiment: Cytotoxicity against human K562 cells assessed as cell viability after 48 hrs by trypan blue exclusion assay. To be noted: K562, 48 h. It counts as functional, cell-based.
Data set [7] has as its system K562. Put plainly: Cytotoxicity against human K562 cells assessed as cell viability after 24 hrs by trypan blue exclusion assay. It counts as functional, cell-based. Particulars: K562, 24 h.
Data set [8] concerns K562. As to the kind of experiment: Cytotoxicity against human K562 cells assessed as cell viability after 8 hrs by trypan blue exclusion assay. It counts as functional, cell-based. To be noted: K562, 8 h.
Data set [9] relates to A549. As to the kind of experiment: Cytotoxicity against human A549 cells assessed as concentration required to inhibition cell proliferation after 120 hrs by Incucyte phase contrast microscopic analysis. Format: functional.
Data set [10] concerns K562. Put plainly: Cytotoxicity against human K562 cells assessed as concentration required to inhibit cell proliferation after 120 hrs by Incucyte phase contrast microscopic analysis. It counts as functional.
The subject of data set [11] is PBMC. Put plainly: Cytotoxicity against human PBMC cells assessed as cell viability after 24 hrs by trypan blue exclusion assay. It counts as cell-based.
Data set [12] can be described thus: Selectivity ratio of IC50 for human PBMC cells to IC50 for human K562 cells. Format: cell-based. Particulars: PBMC cells versus K562 cells, read-out: Ratio IC50.

As to `CC1=C[C@]2(C)C(=C(C)[C@@H]3[C@@H]4C[C@H](C)C[C@H](C)[C@H]4[C@H]4Oc5ccc(cc5)C[C@@]5(O)C=C(C(=O)N5)C(=O)[C@H]2[C@@H]43)[C@@H]1C`, the IC50 in data set [1] was determined as 3040 nM; in [5] it was 1200 nM; in [6] it was 1280 nM; in data set [7] it was 2860 nM; in [8], 3470 nM. In data set [2], the inhibition entry is “Dose-dependent effect”. Moreover, the figures for the Activity entry in [3] and in data set [4] were “tde” and “Dose-dependent effect”, respectively.

Take `CC1=C[C@]2(C)C(=C(C)[C@@H]3[C@@H]4C[C@H](C)C[C@H](C)[C@H]4[C@H]4Oc5ccc(cc5)C[C@]5(O)NC(=O)/C(=C(/O)[C@H]2[C@@H]43)[C@@H]5O)[C@@H]1C`: the INH entry in data set [9] and in data set [10] was “>=0.5 uM” in each case. The IC50 in data set [1] is 352 nM; in data set [11], 12800 nM; in data set [5], 210 nM; in [6], 250 nM; in data set [7] it was 323 nM; in data set [8], 917 nM. In [2], the inhibition entry is “Dose-dependent effect”. In addition, the figures for the Activity result in data set [3] and in data set [4] were “tde” and “Dose-dependent effect”, respectively. The selectivity ratio in data set [12] came to 40.

Usually IC50 stands for the concentration that gives 50% inhibition.
